Nine molecules from PubChem BioAssay (NCI) can be followed below.

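Briefly, cells in 96-well plates were exposed to five compound concentrations for 48 h, and endpoints were estimated by linear interpolation. GI50 marks 50% less growth. Definition used: TGI = concentration required for complete inhibition of growth.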

Among the test systems are SF-539 CNS; T-47D breast; SNB-19 CNS; ACHN renal; K-562 leukemia; 786-0 renal; MALME-3M melanoma; BT-549 breast.
Holding throughout (assay): inhibition of tumour cell growth, NCI panel, 48 h

With `NC(N)=Nc1ccc(/C=C2\C=Cc3ccccc32)cc1`, the GI50 in the assay with SF-539 CNS is 3.66 µM; in the assay with T-47D breast, 2.48 µM; in the assay with SNB-19 CNS, 6.32 µM; with ACHN renal, 1.91 µM; with K-562 leukemia it was 2.66 µM; in the assay on 786-0 renal, 3.22 µM. Besides, the results for the GI50 in the assay on MALME-3M melanoma and in the assay on BT-549 breast were 4.41 µM and 3.98 µM, respectively. The TGI is 9.66 µM with SF-539 CNS; 7.39 µM in the assay on T-47D breast; 32.5 µM with SNB-19 CNS; 3.56 µM in the assay on ACHN renal; over 22 µM in the assay on K-562 leukemia; 14.8 µM with 786-0 renal. Also, the values for the TGI with MALME-3M melanoma and in the assay with BT-549 breast were 16.5 µM and 26.5 µM, respectively.

Turning to `Cc1ccccc1C(C(=O)NC1CCCCC1)N(C(=O)CNc1ccc(C#N)cc1)c1cccc(F)c1` (centres undefined), the GI50 was 16.2 µM in the assay on SF-539 CNS; 31.4 µM in the assay with T-47D breast; 9.13 µM with SNB-19 CNS; 11.7 µM in the assay on ACHN renal; over 95.7 µM in the assay with K-562 leukemia; 17.3 µM in the assay on 786-0 renal. The GI50 was 15.7 µM in the assay with MALME-3M melanoma and 32.5 µM in the assay on BT-549 breast. Further, the TGI was over 59.7 µM in the assay on SF-539 CNS; over 100 µM in the assay on T-47D breast; 37.3 µM with SNB-19 CNS; over 100 µM in the assay with ACHN renal; over 100 µM in the assay on K-562 leukemia; over 67.9 µM in the assay on 786-0 renal. For the same molecule, the TGI in the assay with MALME-3M melanoma is over 91.3 µM; with BT-549 breast it was over 100 µM.

For the molecule `CCOC(=O)c1cc(NS(=O)(=O)c2ccc(C)cc2)cc(C(=O)OCC)c1`, the GI50 with SF-539 CNS is 49.4 µM; in the assay on T-47D breast, 21.1 µM; with SNB-19 CNS it was 76.1 µM; in the assay on ACHN renal it was 42.3 µM; in the assay with K-562 leukemia, 40.2 µM; with 786-0 renal, 53.7 µM. Moreover, the GI50 was over 100 µM in the assay on MALME-3M melanoma and 34.8 µM in the assay on BT-549 breast. Further, the TGI was over 100 µM in the assay on SF-539 CNS; 83.6 µM in the assay with T-47D breast; over 100 µM with SNB-19 CNS; over 100 µM with ACHN renal; over 100 µM in the assay with K-562 leukemia; over 100 µM in the assay on 786-0 renal. Also, the TGI in the assay with MALME-3M melanoma and in the assay with BT-549 breast was over 100 µM throughout.

For the molecule `Cc1ccsc1-c1ccc2c(c1)COC2(CCCN(C)C)c1ccc(F)cc1` (centres undefined), the GI50 in the assay on SF-539 CNS is 1.8 µM; in the assay on T-47D breast, 2.15 µM; in the assay with SNB-19 CNS, 2.77 µM; in the assay on ACHN renal it was 3.48 µM; with K-562 leukemia, 2.46 µM; in the assay on 786-0 renal, 2.54 µM. Also, the GI50 in the assay on MALME-3M melanoma was 1.39 µM; in the assay with BT-549 breast, 4.97 µM. Moreover, the TGI in the assay on SF-539 CNS was 3.4 µM; in the assay with T-47D breast, 6.92 µM; with SNB-19 CNS, 10.3 µM; with ACHN renal, 13.3 µM; in the assay with K-562 leukemia, 8.05 µM; in the assay with 786-0 renal, 7.97 µM. In addition, the TGI turned out to be 2.8 µM with MALME-3M melanoma and 18.6 µM in the assay on BT-549 breast.

For the molecule `CC/C=C\C[C@H](O)C/C=C1/C(=O)C=C[C@@H]1C/C=C\CCCCO`, the GI50 is 2.03 µM in the assay with SF-539 CNS; 2.63 µM with T-47D breast; 7.6 µM in the assay on SNB-19 CNS; 1.8 µM in the assay with ACHN renal; 2.91 µM in the assay with K-562 leukemia; 1.91 µM with 786-0 renal. Besides, the GI50 in the assay with MALME-3M melanoma is 2.44 µM; in the assay on BT-549 breast, 2.46 µM. For the same molecule, the TGI with SF-539 CNS was 4.55 µM; in the assay with T-47D breast, 11.1 µM; in the assay with SNB-19 CNS, 23.2 µM; in the assay with ACHN renal, 3.66 µM; in the assay with K-562 leukemia, over 100 µM; in the assay on 786-0 renal, 3.77 µM. Besides, the results for the TGI with MALME-3M melanoma and with BT-549 breast were 7.48 µM and 6.68 µM, respectively.

As to `O=C1CC(N2C(=O)/C(=C/C(Cl)=C\c3ccc([N+](=O)[O-])cc3)SC2=S)C(=O)N1c1ccc(O)cc1` (centres undefined), the GI50 with SF-539 CNS was 1.72 µM; with T-47D breast, 2.45 µM; in the assay with SNB-19 CNS, 1.34 µM; in the assay with ACHN renal it was 1.36 µM; in the assay on K-562 leukemia, 0.603 µM; in the assay with 786-0 renal, 1.23 µM. Besides, the GI50 in the assay on MALME-3M melanoma was 2.31 µM; with BT-549 breast, 2.03 µM. The TGI in the assay on SF-539 CNS was determined as 3.81 µM; with T-47D breast it was 15.8 µM; with SNB-19 CNS, 3.47 µM; with ACHN renal it was 2.76 µM; in the assay with K-562 leukemia, 9.55 µM; in the assay with 786-0 renal, 4.81 µM. The TGI was determined as 5.79 µM with MALME-3M melanoma and 4.21 µM in the assay with BT-549 breast.

With `CC(C)Cc1ccc(C(C)C(=O)NCc2ccc(Cn3c(=O)sn(CCCI)c3=O)cc2)cc1` (centres undefined), the GI50 with SF-539 CNS was 0.804 µM; with T-47D breast it was 1.64 µM; with SNB-19 CNS it was 1.45 µM; in the assay with ACHN renal it was 0.233 µM; in the assay with K-562 leukemia, 0.388 µM; in the assay with 786-0 renal, 0.475 µM. Besides, the GI50 was 1.41 µM in the assay on MALME-3M melanoma and 0.571 µM in the assay with BT-549 breast. Besides, the TGI is 2.08 µM with SF-539 CNS; 5.93 µM in the assay with T-47D breast; 2.78 µM with SNB-19 CNS; 0.633 µM with ACHN renal; over 100 µM with K-562 leukemia; 0.998 µM with 786-0 renal. Further, the values for the TGI in the assay with MALME-3M melanoma and with BT-549 breast were 2.8 µM and 1.81 µM, respectively.

Turning to `O=C1NC(=NCCc2ccccn2)S/C1=C\c1ccc2ncccc2c1`, the GI50 is 6.68 µM in the assay on SF-539 CNS; 11 µM with T-47D breast; 11.1 µM with SNB-19 CNS; 8.2 µM in the assay on ACHN renal; 9.99 µM in the assay with K-562 leukemia; 16.8 µM in the assay with 786-0 renal. Also, the GI50 is 18.1 µM in the assay on MALME-3M melanoma and 10.5 µM in the assay with BT-549 breast. Further, the TGI in the assay with SF-539 CNS, in the assay with T-47D breast, in the assay on SNB-19 CNS, in the assay with ACHN renal, in the assay with K-562 leukemia and in the assay on 786-0 renal was over 25 µM throughout. Further, the TGI with MALME-3M melanoma and in the assay on BT-549 breast was over 25 µM throughout.

In the case of `CN(C)C=Nc1c(I)cc(I)c(CCC(=O)O)c1I`, the GI50 in the assay on SF-539 CNS is over 100 µM; with T-47D breast, over 100 µM; in the assay with SNB-19 CNS it was over 100 µM; with ACHN renal, over 100 µM; in the assay on K-562 leukemia, 59.3 µM; in the assay with 786-0 renal, over 100 µM. Besides, the GI50 with MALME-3M melanoma and in the assay with BT-549 breast was over 100 µM each time. Moreover, the TGI in the assay with SF-539 CNS, in the assay with T-47D breast, with SNB-19 CNS, in the assay with ACHN renal, with K-562 leukemia and in the assay with 786-0 renal was over 100 µM in each case. Further, the TGI in the assay on MALME-3M melanoma and in the assay on BT-549 breast was over 100 µM throughout.
